Laboratory results taken from article PMC12090182, “Repurposing of the RIPK1-Selective Benzo[1,4]oxazepin-4-one Scaffold for the Development of a Type III LIMK1/2 Inhibitor” (ACS Chemical Biology, 2025).

Tests used:
Assay in all cases: biochemical
Type in all cases: binding
[1] = molecular target: 468 kinases including some pathogenic mutants (Homo sapiens, UniProt O14730); conditions: RIOK3 (Entrez RIOK3), 100 nM; read-out: Percent Control
[2] = molecular target: 468 kinases including some pathogenic mutants (Homo sapiens, UniProt O15530); conditions: PDPK1 (Entrez PDPK1), 100 nM; read-out: Percent Control
[3] = molecular target: 468 kinases including some pathogenic mutants (Homo sapiens, UniProt O75385); conditions: ULK1 (Entrez ULK1), 1000 nM; read-out: Percent Control
[4] = molecular target: 468 kinases including some pathogenic mutants (Homo sapiens, UniProt O94806); conditions: PRKD3 (Entrez PRKD3), 100 nM; read-out: Percent Control
[5] = molecular target: 468 kinases including some pathogenic mutants (Homo sapiens, UniProt P00533, L861Q); conditions: read-out: Percent Control
[6] = molecular target: 468 kinases including some pathogenic mutants (Homo sapiens, UniProt P06239); conditions: LCK (Entrez LCK), 100 nM; read-out: Percent Control
[7] = molecular target: 468 kinases including some pathogenic mutants (Homo sapiens, UniProt P10721, A829P); conditions: read-out: Percent Control
[8] = molecular target: 468 kinases including some pathogenic mutants (Homo sapiens, UniProt P11309); conditions: PIM1 (Entrez PIM1), 100 nM; read-out: Percent Control
[9] = molecular target: 468 kinases including some pathogenic mutants (Homo sapiens, UniProt P14616); conditions: INSRR (Entrez INSRR), 100 nM; read-out: Percent Control
[10] = molecular target: 468 kinases including some pathogenic mutants (Homo sapiens, UniProt P21860); conditions: ERBB3 (Entrez ERBB3), 100 nM; read-out: Percent Control
[11] = molecular target: 468 kinases including some pathogenic mutants (Homo sapiens, UniProt P22455); conditions: FGFR4 (Entrez FGFR4), 100 nM; read-out: Percent Control
[12] = molecular target: 468 kinases including some pathogenic mutants (Homo sapiens, UniProt P29323); conditions: EPHB2 (Entrez EPHB2), 100 nM; read-out: Percent Control
[13] = molecular target: 468 kinases including some pathogenic mutants (Homo sapiens, UniProt P35590); conditions: TIE1 (Entrez TIE1), 100 nM; read-out: Percent Control
[14] = molecular target: 468 kinases including some pathogenic mutants (Homo sapiens, UniProt P41743); conditions: PRKCI (Entrez PRKCI), 100 nM; read-out: Percent Control
[15] = molecular target: 468 kinases including some pathogenic mutants (Homo sapiens, UniProt P78356); conditions: PIP5K2B (Entrez PIP4K2B), 100 nM; read-out: Percent Control
[16] = molecular target: 468 kinases including some pathogenic mutants (Homo sapiens, UniProt Q00537); conditions: PCTK2 (Entrez CDK17), 100 nM; read-out: Percent Control
[17] = molecular target: 468 kinases including some pathogenic mutants (Homo sapiens, UniProt Q05655); conditions: PRKCD (Entrez PRKCD), 1000 nM; read-out: Percent Control
[18] = molecular target: 468 kinases including some pathogenic mutants (Homo sapiens, UniProt Q13976); conditions: PRKG1 (Entrez PRKG1), 100 nM; read-out: Percent Control
[19] = molecular target: 468 kinases including some pathogenic mutants (Homo sapiens, UniProt Q15746); conditions: MYLK (Entrez MYLK), 100 nM; read-out: Percent Control
[20] = molecular target: 468 kinases including some pathogenic mutants (Homo sapiens, UniProt Q16584); conditions: MLK3 (Entrez MAP3K11), 100 nM; read-out: Percent Control
[21] = molecular target: 468 kinases including some pathogenic mutants (Homo sapiens, UniProt Q6ZWH5); conditions: NEK10 (Entrez NEK10), 100 nM; read-out: Percent Control
[22] = molecular target: 468 kinases including some pathogenic mutants (Homo sapiens, UniProt Q86YV6); conditions: MYLK4 (Entrez MYLK4), 1000 nM; read-out: Percent Control
[23] = molecular target: 468 kinases including some pathogenic mutants (Homo sapiens, UniProt Q8WTQ7); conditions: GRK7 (Entrez GRK7), 100 nM; read-out: Percent Control
[24] = molecular target: 468 kinases including some pathogenic mutants (Homo sapiens, UniProt Q9BXA7); conditions: TSSK1B (Entrez TSSK1B), 100 nM; read-out: Percent Control
[25] = molecular target: 468 kinases including some pathogenic mutants (Homo sapiens, UniProt Q9HCP0); conditions: CSNK1G1 (Entrez CSNK1G1), 100 nM; read-out: Percent Control
[26] = molecular target: 468 kinases including some pathogenic mutants (Homo sapiens, UniProt Q9NY57); conditions: YANK2 (Entrez STK32B), 1000 nM; read-out: Percent Control
[27] = molecular target: 468 kinases including some pathogenic mutants (Homo sapiens, UniProt Q9Y2I7); conditions: PIKFYVE (Entrez PIKFYVE), 1000 nM; read-out: Percent Control
[28] = molecular target: 468 kinases including some pathogenic mutants (Homo sapiens, UniProt Q9Y5S2); conditions: MRCKB (Entrez CDC42BPB), 1000 nM; read-out: Percent Control
Sequence of 468 kinases including some pathogenic mutants (Homo sapiens, UniProt Q9Y5S2) (Q9Y5S2 whole entry, change not shown): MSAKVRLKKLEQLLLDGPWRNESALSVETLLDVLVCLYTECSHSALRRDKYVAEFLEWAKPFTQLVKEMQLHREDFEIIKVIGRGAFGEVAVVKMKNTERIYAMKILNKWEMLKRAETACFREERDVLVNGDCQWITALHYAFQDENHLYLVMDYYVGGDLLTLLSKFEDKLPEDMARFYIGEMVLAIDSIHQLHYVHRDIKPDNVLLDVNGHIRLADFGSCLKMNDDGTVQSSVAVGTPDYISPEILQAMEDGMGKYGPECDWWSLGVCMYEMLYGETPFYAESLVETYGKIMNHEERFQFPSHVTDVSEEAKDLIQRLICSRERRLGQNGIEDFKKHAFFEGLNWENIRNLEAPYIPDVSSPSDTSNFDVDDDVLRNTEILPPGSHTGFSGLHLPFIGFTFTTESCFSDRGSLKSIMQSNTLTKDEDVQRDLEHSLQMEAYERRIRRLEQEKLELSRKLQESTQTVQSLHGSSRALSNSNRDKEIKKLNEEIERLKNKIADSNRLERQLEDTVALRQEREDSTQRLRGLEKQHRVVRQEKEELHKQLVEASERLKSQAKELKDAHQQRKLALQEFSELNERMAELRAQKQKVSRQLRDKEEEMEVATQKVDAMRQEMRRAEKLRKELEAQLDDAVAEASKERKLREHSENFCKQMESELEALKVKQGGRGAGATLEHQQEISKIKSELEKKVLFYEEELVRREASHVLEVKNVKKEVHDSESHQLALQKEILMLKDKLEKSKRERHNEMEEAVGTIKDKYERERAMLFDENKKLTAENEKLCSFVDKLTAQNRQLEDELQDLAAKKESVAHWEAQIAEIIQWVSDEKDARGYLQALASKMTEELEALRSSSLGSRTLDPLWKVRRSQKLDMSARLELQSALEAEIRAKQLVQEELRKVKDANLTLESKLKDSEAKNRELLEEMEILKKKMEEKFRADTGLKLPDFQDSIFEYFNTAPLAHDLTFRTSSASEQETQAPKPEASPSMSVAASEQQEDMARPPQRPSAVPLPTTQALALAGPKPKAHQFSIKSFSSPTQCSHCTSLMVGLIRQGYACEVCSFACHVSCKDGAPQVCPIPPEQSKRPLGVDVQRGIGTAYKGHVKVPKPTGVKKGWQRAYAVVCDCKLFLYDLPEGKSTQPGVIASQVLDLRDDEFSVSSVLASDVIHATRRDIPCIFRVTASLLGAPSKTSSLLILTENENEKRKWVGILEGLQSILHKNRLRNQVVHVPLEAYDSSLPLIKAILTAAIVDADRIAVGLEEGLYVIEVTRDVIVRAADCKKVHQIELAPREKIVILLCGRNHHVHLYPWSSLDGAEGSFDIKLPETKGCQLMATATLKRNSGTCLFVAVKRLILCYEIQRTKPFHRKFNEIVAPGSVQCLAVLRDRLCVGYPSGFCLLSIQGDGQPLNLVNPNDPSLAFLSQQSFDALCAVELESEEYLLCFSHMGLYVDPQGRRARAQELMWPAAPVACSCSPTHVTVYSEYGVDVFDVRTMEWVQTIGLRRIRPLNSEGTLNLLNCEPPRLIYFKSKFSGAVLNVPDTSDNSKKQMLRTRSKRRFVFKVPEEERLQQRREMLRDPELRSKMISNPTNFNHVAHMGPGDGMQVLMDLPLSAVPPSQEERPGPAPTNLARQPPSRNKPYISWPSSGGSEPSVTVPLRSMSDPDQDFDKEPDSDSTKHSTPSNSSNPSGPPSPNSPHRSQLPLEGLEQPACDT

Sequence of 468 kinases including some pathogenic mutants (Homo sapiens, UniProt O75385) (O75385 whole entry, change not shown): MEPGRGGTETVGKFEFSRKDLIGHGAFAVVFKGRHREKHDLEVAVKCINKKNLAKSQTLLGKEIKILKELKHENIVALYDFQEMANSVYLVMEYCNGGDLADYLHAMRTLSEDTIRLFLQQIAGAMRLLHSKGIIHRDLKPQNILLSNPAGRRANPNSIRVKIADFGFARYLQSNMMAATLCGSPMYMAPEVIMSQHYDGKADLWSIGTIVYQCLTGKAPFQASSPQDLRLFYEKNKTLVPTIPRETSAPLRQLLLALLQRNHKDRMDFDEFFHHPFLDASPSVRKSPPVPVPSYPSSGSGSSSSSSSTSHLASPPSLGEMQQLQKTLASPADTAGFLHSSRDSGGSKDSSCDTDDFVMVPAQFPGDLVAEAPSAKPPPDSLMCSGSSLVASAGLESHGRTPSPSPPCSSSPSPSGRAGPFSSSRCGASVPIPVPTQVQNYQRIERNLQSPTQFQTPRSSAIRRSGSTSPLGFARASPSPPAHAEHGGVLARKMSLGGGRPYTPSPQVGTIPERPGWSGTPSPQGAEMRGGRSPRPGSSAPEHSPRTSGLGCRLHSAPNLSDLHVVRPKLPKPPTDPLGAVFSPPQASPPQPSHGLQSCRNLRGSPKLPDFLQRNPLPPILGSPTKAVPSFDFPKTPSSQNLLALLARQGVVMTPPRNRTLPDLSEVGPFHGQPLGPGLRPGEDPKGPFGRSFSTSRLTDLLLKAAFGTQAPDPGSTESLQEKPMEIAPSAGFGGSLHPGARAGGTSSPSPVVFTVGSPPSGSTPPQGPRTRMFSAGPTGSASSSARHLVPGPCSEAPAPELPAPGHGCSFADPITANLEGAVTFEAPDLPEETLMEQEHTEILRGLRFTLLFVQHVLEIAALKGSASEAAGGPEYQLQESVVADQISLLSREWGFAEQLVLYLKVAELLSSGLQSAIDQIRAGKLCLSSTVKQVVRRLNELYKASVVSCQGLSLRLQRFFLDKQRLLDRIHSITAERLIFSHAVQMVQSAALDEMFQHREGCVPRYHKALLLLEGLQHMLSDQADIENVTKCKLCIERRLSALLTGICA
Sequence of 468 kinases including some pathogenic mutants (Homo sapiens, UniProt Q8WTQ7) (Q8WTQ7 whole entry, change not shown): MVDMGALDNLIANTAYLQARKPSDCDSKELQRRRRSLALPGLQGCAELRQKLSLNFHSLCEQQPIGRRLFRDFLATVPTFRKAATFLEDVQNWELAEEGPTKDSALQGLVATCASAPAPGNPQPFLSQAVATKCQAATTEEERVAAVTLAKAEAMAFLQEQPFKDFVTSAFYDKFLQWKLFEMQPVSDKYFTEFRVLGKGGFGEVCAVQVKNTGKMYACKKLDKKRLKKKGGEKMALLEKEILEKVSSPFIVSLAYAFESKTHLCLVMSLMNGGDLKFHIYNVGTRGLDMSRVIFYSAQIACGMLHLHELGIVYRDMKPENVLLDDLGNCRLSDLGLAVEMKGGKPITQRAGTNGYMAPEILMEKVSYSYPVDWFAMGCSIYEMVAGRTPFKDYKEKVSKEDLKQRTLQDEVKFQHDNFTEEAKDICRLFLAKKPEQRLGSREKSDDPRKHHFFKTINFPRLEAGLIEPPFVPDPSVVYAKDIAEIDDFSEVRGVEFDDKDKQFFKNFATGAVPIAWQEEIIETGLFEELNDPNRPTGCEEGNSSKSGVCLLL
Sequence of 468 kinases including some pathogenic mutants (Homo sapiens, UniProt Q86YV6) (Q86YV6 whole entry, change not shown): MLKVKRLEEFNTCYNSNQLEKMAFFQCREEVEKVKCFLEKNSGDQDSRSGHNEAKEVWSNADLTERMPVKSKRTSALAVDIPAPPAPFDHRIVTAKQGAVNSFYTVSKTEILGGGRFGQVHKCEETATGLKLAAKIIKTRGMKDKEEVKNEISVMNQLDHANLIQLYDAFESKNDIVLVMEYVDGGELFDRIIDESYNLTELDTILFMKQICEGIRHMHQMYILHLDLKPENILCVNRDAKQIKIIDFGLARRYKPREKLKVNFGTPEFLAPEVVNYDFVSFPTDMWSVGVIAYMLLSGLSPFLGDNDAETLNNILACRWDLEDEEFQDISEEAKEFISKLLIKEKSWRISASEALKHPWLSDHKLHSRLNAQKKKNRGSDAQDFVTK
Sequence of 468 kinases including some pathogenic mutants (Homo sapiens, UniProt P21860) (P21860 20-1342, change not shown): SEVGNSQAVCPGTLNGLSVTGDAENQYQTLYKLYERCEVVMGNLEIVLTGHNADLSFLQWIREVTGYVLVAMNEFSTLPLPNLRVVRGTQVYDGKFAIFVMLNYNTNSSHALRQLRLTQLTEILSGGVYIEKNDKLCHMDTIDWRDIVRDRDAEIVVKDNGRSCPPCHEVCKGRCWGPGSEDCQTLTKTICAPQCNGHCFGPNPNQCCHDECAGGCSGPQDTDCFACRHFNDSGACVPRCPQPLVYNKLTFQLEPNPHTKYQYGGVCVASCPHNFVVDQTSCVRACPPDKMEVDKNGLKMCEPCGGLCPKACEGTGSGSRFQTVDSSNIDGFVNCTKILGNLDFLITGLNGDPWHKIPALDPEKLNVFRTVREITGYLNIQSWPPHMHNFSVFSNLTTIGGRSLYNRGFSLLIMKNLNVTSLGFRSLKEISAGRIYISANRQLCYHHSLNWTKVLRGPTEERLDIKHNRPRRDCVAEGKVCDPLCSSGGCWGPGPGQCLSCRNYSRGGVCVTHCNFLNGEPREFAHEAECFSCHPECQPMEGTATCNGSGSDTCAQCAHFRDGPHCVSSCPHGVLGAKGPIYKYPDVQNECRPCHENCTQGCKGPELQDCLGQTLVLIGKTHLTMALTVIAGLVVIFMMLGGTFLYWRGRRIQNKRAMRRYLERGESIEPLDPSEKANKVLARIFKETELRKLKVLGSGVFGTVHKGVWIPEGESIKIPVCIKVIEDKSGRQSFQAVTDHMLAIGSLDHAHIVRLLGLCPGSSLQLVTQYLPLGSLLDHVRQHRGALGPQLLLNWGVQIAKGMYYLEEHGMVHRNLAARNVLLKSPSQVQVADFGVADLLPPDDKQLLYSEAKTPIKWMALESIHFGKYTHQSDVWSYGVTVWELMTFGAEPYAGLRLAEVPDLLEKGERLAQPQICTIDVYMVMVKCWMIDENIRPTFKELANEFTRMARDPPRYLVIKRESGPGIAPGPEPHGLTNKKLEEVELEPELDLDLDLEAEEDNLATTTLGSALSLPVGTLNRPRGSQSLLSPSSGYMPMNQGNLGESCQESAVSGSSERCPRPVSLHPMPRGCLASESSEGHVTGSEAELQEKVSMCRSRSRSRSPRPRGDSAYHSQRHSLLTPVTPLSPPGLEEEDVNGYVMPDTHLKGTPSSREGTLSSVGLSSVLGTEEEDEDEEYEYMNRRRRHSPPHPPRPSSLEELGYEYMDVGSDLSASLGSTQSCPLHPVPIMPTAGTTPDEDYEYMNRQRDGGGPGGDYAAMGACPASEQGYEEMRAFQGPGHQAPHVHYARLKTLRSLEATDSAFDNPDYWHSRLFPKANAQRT

CN1C(=O)[C@@H](N2CCc3c(nn(Cc4ccccc4)c3C(N)=O)C2=O)COc2cc(Cl)ccc21 [Compound 10, (S)-2-benzyl-6-(8-chloro-5-methyl-4-oxo-2,3,4,5-tetrahydrobenzo[b][1,4]oxazepin-3-yl)-7-oxo-4,5,6,7-tetrahydro-2H-pyrazolo[3,4-c]pyridine-3-carboxamide]
remaining activity at 0.1 µM [1]: 63%
remaining activity at 0.1 µM [2]: 100%
remaining activity at 1 µM [3]: 100%
remaining activity at 0.1 µM [4]: 76%
remaining activity at 0.1 µM [5]: 100%
remaining activity at 0.1 µM [6]: 100%
remaining activity at 1 µM [7]: 100%
remaining activity at 0.1 µM [8]: 93%
remaining activity at 0.1 µM [9]: 68%
remaining activity at 0.1 µM [10]: 84%
remaining activity at 0.1 µM [11]: 81%
remaining activity at 0.1 µM [12]: 98%
remaining activity at 0.1 µM [13]: 68%
remaining activity at 0.1 µM [14]: 81%
remaining activity at 0.1 µM [15]: 55%
remaining activity at 0.1 µM [16]: 83%
remaining activity at 1 µM [17]: 100%
remaining activity at 0.1 µM [18]: 78%
remaining activity at 0.1 µM [19]: 89%
remaining activity at 0.1 µM [20]: 100%
remaining activity at 0.1 µM [21]: 89%
remaining activity at 1 µM [22]: 100%
remaining activity at 0.1 µM [23]: 77%
remaining activity at 0.1 µM [24]: 83%
remaining activity at 0.1 µM [25]: 80%
remaining activity at 1 µM [26]: 100%
remaining activity at 1 µM [27]: 100%
remaining activity at 1 µM [28]: 100%
